# Legend:
# [1] = Solubility, stability (heat, UV) and colour of violacein and proviolacein glycosides in aqueous solution; assay type: physicochemical
# Description: In this experiment, qualitative assessments of the solubility, stability and colour of glycosylated violacein and proviolacein were made. The first notable observation was that after the scale-up glycosylation reaction the aqueous phase of the reaction mix was purple (for violacein) and blue (for proviolacein). […] While its well known that glycosylation greatly improves the water solubility of molecules, the attachment of a sugar group typically changes the physiochemical properties of the molecule. In the case of coloured compounds, this typically eliminates their colour. The observation here that glycosylation results in a derivative that retains the original colour is both surprising and commercially useful for use in aqueous products e.g. beverages. To test the stability of violacein and proviolacein glycosides in aqueous solution the solutions were exposed to heat (incubated at 80° c. for 6 h) and UV (incubated in a UV hood for 6 h). HPLC analysis before after each test was used to measure the amount that had degraded during exposure. […] (approx. 0.1% lost during exposure).
# E. coli DH5a = assay: Antimicrobial activity of dyed Nylon 6,6 fabric: final OD600 and % inhibition; assay type: cell-based
# Procedure: (§1) Violacein is reported as being a potent antibiotic, capable of inhibiting the growth of a wide range of microbial kingdoms including bacteria, yeast, fungi, viruses, protozoa and nematode. […] To test this, overnight cultures of wild-type E. coli DH5a and S. cerevisiae S228c strains were diluted in 5 mL of cultivation media (LB for E. coli, minimal media for S. cerevisiae) to a starting OD600 of 0.1. 1.5×1.5 cm dyed Nylon 6,6 fabric strips were sterilized by submerging in 75% ethanol for 15 mins and air drying in a laminar air flow hood before adding to each culture (with undyed Nylon 6,6 fabric as a negative control). […] This experiment provides evidence that all violacein derivatives display antimicrobial properties.
# S. cerevisiae S228c = assay: as above; assay type: cell-based
# Procedure: as §1
# [2] = Free radical scavenging ability of dyed Nylon 6,6 fabric (DPPH); assay type: biochemical; conditions: dyed Nylon 6,6 fabric strip
# Procedure: Violacein is reported as being a potent antioxidant able to effectively scavenge free radicals. […] To test this, 1.5×1.5 cm dyed Nylon 6,6 fabric strips were incubated in the dark at room temperature for 1 h in 5 mL of a 5×10^−5 M DPPH free radical solution in 100% ethanol. Undyed Nylon 6,6 fabric strips were included as a negative control. After 1 h absorbance was measured at 517 nm and % scavenging ability calculated as above.
# [3] = UV absorption capability (absorbance maxima, UV-A, UV-B, UV-C absorption) by HPLC; assay type: physicochemical
# Procedure: The software Agilent Openlab CDS Chemstation Rev.
# Violacein is reported as being a potent UV absorbent able to effectively absorb UV radiation, however, much less is known about the other violacein derivatives. To investigate the potential of using violacein and violacein derivatives as UV inhibitors and to potentially impart UV protection to fabrics, the UV absorption spectra of each compound was analyzed by HPLC and the total absorption capability at each of the most relevant UV wavelengths quantified.
# For the quantification of UV absorption capacity of the compound of interest, a chromatographic separation on the F5 column and a gradient of water/acetonitrile containing 0.05% formic acid was run according to Example 5). […] The compounds were quantified based on the signal at 230 nm, using calibration curves of authentic analytical standards.
# The UV absorption capacity is represented in mAU.min/mM. UV-A, UV-B and UV-C represent the most relevant regions where UV protection is required. UV-C is the most harmful type of UV radiation and can be generated by inorganic sources. UV-B radiation predominantly comes from the suns rays and is responsible for sun burn. UV-A radiation is also derived predominantly from the suns rays, and while UV-A radiation is less harmful than UV-B or UV-C but is much more prevalent.
# S. cerevisiae = assay: Cultivation of engineered S. cerevisiae production strains (titer of each metabolite, final OD600, product toxicity); conditions: intracellular accumulation; growth rate and final OD600
# Procedure: Genetically engineered yeast strains were pre-cultured in 500 μL or 5 mL of liquid Delft minimal media (Table 10) with 20 g/L glucose and relevant amino acid supplements for 48 h at 30° C. and 280 rpm in 2 mL microtiter plates with air-permeable sealing or 12 mL cultivation tubes. Subsequently, 10 μL or 1 mL of yeast preculture was transferred to 490 μL or 49 mL of Delft minimal media with 20 g/L glucose and relevant amino acid supplements and cultivated for 72 h at 30° C. and 280 rpm in either a 2 mL microtiter plate with air-permeable sealing, or a 200 mL shakeflask. After cultivation, extracellular metabolites were extracted by mixing whole cell broth 1:1 with 100% methanol, vortexing thoroughly and centrifuging at 4000×g for 5 min. […]
# In some cases, where a non-ionic surfactant was added to the cultivation media, extraction of extracellular metabolites was done by centrifuging the entire culture broth at 4000×g for 5 min to separate the culture into 3 phases, a biomass “pellet” a dilute surfactant phase, and a violacein or violacein derivative concentrated surfactant phase. […] Where possible, authentic analytical standards were used for quantification. […] Yeast cells were pelleted by centrifugation at 11.000×G for 5 min., and the supernatant was recovered and analyzed by UHPLC or LC-MS/MS. […]
# Procedure for S. cerevisiae SC-144: After cultivation cultures were transferred to 50 mL falcon tubes and centrifuged 4000×g for 5 min. […] The aqueous layers were separated from the cell pellets to observe the colour of the cells. […] Samples were diluted in water to a final volume of 100 μL until they were within the linear range of the spectrophotometric plate reader. Each sample was measured at 575 nm (experimentally determined to be the emission maxima of deoxyviolacein). […] The final OD600 of each cultivation was also measured by first washing the cell pellet with water (to remove as much deoxyviolacein from the media as possible) and finally resuspending in 50 mL water.
compound,measurement,setting,value
CCCCCCCCCCCCCC(=O)OC(C)C [isopropyl myristate],toxicity of in situ extractant to S. cerevisiae,S. cerevisiae SC-144,non-toxic
"(1,1,3,3-Tetramethylbutyl)phenyl-polyethylene glycol, Polyethylene glycol tert-octylphenyl ether [Triton X-114]",toxicity of in situ extractant to S. cerevisiae,S. cerevisiae SC-144,non-toxic
O=C1NC(c2c[nH]c3ccc(OC4OC(CO)C(O)C(O)C4O)cc23)=CC1=C1C(=O)Nc2ccccc21 (stereo not shown) [violacein glucoside],amount lost (degraded) during exposure to UV,[1],approx. 0.1%
same,amount lost (degraded) during exposure to heat,[1],approx. 0.1%
same,water solubility,[1],water soluble
O=C1N=C(c2c[nH]c3ccccc23)C=C1c1c[nH]c2ccccc12 [prodeoxyviolacein],Final OD600,"E. coli DH5a; E. coli cultured overnight at 30° c. with dyed Nylon 6,6 fabric strip, starting OD600 0.1",4.67
same,% Inhibition,"E. coli DH5a; E. coli, dyed Nylon 6,6 fabric vs undyed fabric control",10.49%
same,Final OD600,"S. cerevisiae S228c; S. cerevisiae cultured overnight at 30° c. with dyed Nylon 6,6 fabric strip, starting OD600 0.1",4.70
same,% Inhibition,"S. cerevisiae S228c; S. cerevisiae, dyed Nylon 6,6 fabric vs undyed fabric control",12.35%
same,OD517,[2]; 1 h in the dark in 5×10^−5 M DPPH in 100% ethanol,1.99
same,Scavenging ability %,"[2]; 1 h in the dark in 5×10^−5 M DPPH, vs undyed control",12.28%
same,UV absorption capability in the UV-B region,[3]; 305 nm,particularly high
same,Total UV absorption UV C (245 nm),[3]; AUC of HPLC peak at 245 nm per mM,3516.1 (mAU · min)/mM
same,Total UV absorption UV B (305 nm),[3]; AUC of HPLC peak at 305 nm per mM,3778.8 (mAU · min)/mM
same,Total UV absorption UV A (360 nm),[3]; AUC of HPLC peak at 360 nm per mM,0 (mAU · min)/mM
"N=C(Cc1c[nH]c2ccccc12)C(=O)O [IPA imine, Indole 3-pyruvic acid imine]",toxicity to the yeast production host,S. cerevisiae,not toxic

# Reference: patent publication US20260092179A1, “GENETICALLY MODIFIED HOST CELLS PRODUCING VIOLACEIN, ANALOGUES, AND DERIVATIVES THEREOF” (OCTARINE BIO APS, priority 2022, published 2026)
